Where two headings read alike, the source gives them in different places.
Experiment: Plasma pharmacokinetics of lorlatinib at steady state (LC-MS/MS, non-compartmental analysis)
Type: in vivo, human
Conditions: human; for Cmax: read-out: Cmax; for Tmax: read-out: Tmax
Description: Lorlatinib was isolated from human plasma by a liquid-iquid extraction procedure. […] A linear-log trapezoidal method was used [NT] A best-fit method was used to estimate terminal elimination and to extrapolate any plasma concentration versus time profiles to compute [NT].

[1] = in vivo, 115 mg/m2, Cycle 1 Day 1, Cohort B2, 115 mg/m2 per dose
[2] = in vivo, 115 mg/m2, Cycle 1 Day 1, Cohort A1, 115 mg/m2 per dose, individual patients
[3] = in vivo, 115 mg/m2, Cycle 1 Day 1, patient N0773, Cohort B2, 115 mg/m2 per dose, Dose 75
[4] = in vivo, 115 mg/m2, Cycle 1 Day 15, Cohort A1, 115 mg/m2 per dose, individual patients
[5] = in vivo, 115 mg/m2, Cycle 1 Day 15, patient N0773, Cohort B2, 115 mg/m2 per dose, Dose 75
[6] = plasma, oral, 45 mg/m2, Cohort A1, 45 mg/m2 per dose, C1D15, Geometric Mean, N 3
[7] = plasma, oral, 45 mg/m2, Cohort A1, 45 mg/m2 per dose, C1D15, Median, N 3
[8] = plasma, oral, 45 mg/m2, Cycle 1 Day 1, Cohort A1, 45 mg/m2 per dose, individual patients
[9] = plasma, oral, 60 mg/m2, Cohort A1, 60 mg/m2 per dose, C1D15, Median, N 3

C[C@H]1Oc2cc(cnc2N)-c2c(nn(C)c2C#N)CN(C)C(=O)c2ccc(F)cc21 [Lorlatinib, (10R)-7-amino-12-fluoro-2,10,16-trimethyl-15-oxo-10,15,16,17-tetrahydro-2H-8,4-(metheno)pyrazolo[4,3-h][2,5,11]-benzoxadiazacyclotetradecine-3-carbonitrile]
AUC (in vivo, 115 mg/m2, Cycle 1 Day 1, Cohort B2, 115 mg/m2 per dose, read-out: AUCall): 17700 ng·h/mL
Cmax [1]: 2320 ng/mL
Tmax [1]: 1 h
AUC(0-t) [2]: 14700 ng·h/mL
MRT last [2]: 8.5 h
AUC (in vivo, 115 mg/m2, Cycle 1 Day 1, Cohort A1, 115 mg/m2 per dose, individual patients, read-out: AUCall): 14700 ng·h/mL
Cmax [2]: 1440 ng/mL
Tmax [2]: 2 h
AUC(0-t) [3]: 10800 ng·h/mL
MRT last [3]: 8.24 h
AUC (in vivo, 115 mg/m2, Cycle 1 Day 1, patient N0773, Cohort B2, 115 mg/m2 per dose, Dose 75, read-out: AUCall): 10800 ng·h/mL
Cmax [3]: 1660 ng/mL
MRT inf (in vivo, 115 mg/m2, Cycle 1 Day 15, Cohort A1, 115 mg/m2 per dose, read-out: MRTINF_obs): 11.7 h
MRT inf (in vivo, 115 mg/m2, Cycle 1 Day 15, Cohort A1, 115 mg/m2 per dose, read-out: MRTINF_pred): 11.7 h
MRT inf (in vivo, 115 mg/m2, Cycle 1 Day 15, Cohort B2, 115 mg/m2 per dose, read-out: MRTINF_obs): 13.5 h
MRT inf (in vivo, 115 mg/m2, Cycle 1 Day 15, Cohort B2, 115 mg/m2 per dose, read-out: MRTINF_pred): 13.5 h
Tmax (in vivo, 115 mg/m2, Cycle 1 Day 15, Cohort B2, 115 mg/m2 per dose): 1 h
AUC(0-t) [4]: 8210 ng·h/mL
AUC(0-inf) (in vivo, 115 mg/m2, Cycle 1 Day 15, Cohort A1, 115 mg/m2 per dose, individual patients, read-out: AUCINF_obs): 10800 ng·h/mL
AUC(0-inf) (in vivo, 115 mg/m2, Cycle 1 Day 15, Cohort A1, 115 mg/m2 per dose, individual patients, read-out: AUCINF_pred): 10700 ng·h/mL
AUC (in vivo, 115 mg/m2, Cycle 1 Day 15, Cohort A1, 115 mg/m2 per dose, individual patients, read-out: AUC_TAU): 8210 ng·h/mL
AUC (in vivo, 115 mg/m2, Cycle 1 Day 15, Cohort A1, 115 mg/m2 per dose, individual patients, read-out: AUCall): 8210 ng·h/mL
Cmax [4]: 1350 ng/mL
MRT inf (in vivo, 115 mg/m2, Cycle 1 Day 15, Cohort A1, 115 mg/m2 per dose, individual patients, read-out: MRTINF_obs): 15.8 h
MRT inf (in vivo, 115 mg/m2, Cycle 1 Day 15, Cohort A1, 115 mg/m2 per dose, individual patients, read-out: MRTINF_pred): 15.7 h
AUC(0-t) [5]: 5370 ng·h/mL
AUC(0-inf) (in vivo, 115 mg/m2, Cycle 1 Day 15, patient N0773, Cohort B2, 115 mg/m2 per dose, Dose 75, read-out: AUCINF_obs): 6990 ng·h/mL
AUC(0-inf) (in vivo, 115 mg/m2, Cycle 1 Day 15, patient N0773, Cohort B2, 115 mg/m2 per dose, Dose 75, read-out: AUCINF_pred): 6860 ng·h/mL
AUC (in vivo, 115 mg/m2, Cycle 1 Day 15, patient N0773, Cohort B2, 115 mg/m2 per dose, Dose 75, read-out: AUC_TAU): 6950 ng·h/mL
AUC (in vivo, 115 mg/m2, Cycle 1 Day 15, patient N0773, Cohort B2, 115 mg/m2 per dose, Dose 75, read-out: AUCall): 5370 ng·h/mL
Cmax [5]: 1780 ng/mL
MRT inf (in vivo, 115 mg/m2, Cycle 1 Day 15, patient N0773, Cohort B2, 115 mg/m2 per dose, Dose 75, read-out: MRTINF_obs): 4.18 h
MRT inf (in vivo, 115 mg/m2, Cycle 1 Day 15, patient N0773, Cohort B2, 115 mg/m2 per dose, Dose 75, read-out: MRTINF_pred): 3.73 h
AUC (in vivo, 115 mg/m2, steady state, Cohort A1, 115 mg/m^2 QD, (CV), read-out: AUCtau): 8640 ng·h/mL
Cmax (in vivo, 115 mg/m2, steady state, Cohort A1, 115 mg/m^2 QD, (CV)): 1210 ng/mL
Tmax (in vivo, 115 mg/m2, steady state, Cohort A1, 115 mg/m^2 QD): 1.5 h
AUC (in vivo, 115 mg/m2, steady state, Cohort B2 (with topotecan/cyclophosphamide), 115 mg/m^2 QD, (CV), read-out: AUCtau): 7950 ng·h/mL
Cmax (in vivo, 115 mg/m2, steady state, Cohort B2 (with topotecan/cyclophosphamide), 115 mg/m^2 QD, (CV)): 1460 ng/mL
Tmax (in vivo, 115 mg/m2, steady state, Cohort B2 (with topotecan/cyclophosphamide), 115 mg/m^2 QD): 1 h
AUC (in vivo, 150 mg per dose, Cycle 1 Day 1, Cohort A2, 150 mg per dose, read-out: AUCall): 8360 ng·h/mL
AUC (in vivo, 150 mg per dose, Cycle 1 Day 15, Cohort A2, 150 mg per dose, read-out: AUCall): 8300 ng·h/mL
AUC (in vivo, 150 mg, Cycle 1 Day 15, Cohort A2, 150 mg per dose, read-out: AUC_TAU): 8300 ng·h/mL
AUC (plasma, oral, 45 mg/m2, Cohort A1, 45 mg/m2 per dose, C1D15, Geometric Mean, N 3, read-out: AUC_TAU): 2470 ng·h/mL
Cmax [6]: 355 ng/mL
Tmax [6]: 1.26 h
AUC (plasma, oral, 45 mg/m2, Cohort A1, 45 mg/m2 per dose, C1D15, Median, N 3, read-out: AUC_TAU): 3220 ng·h/mL
Cmax [7]: 287 ng/mL
Tmax [7]: 1 h
Tmax (plasma, oral, 45 mg/m2, Cohort A1, 45 mg/m2 per dose, C1D15, individual patient): 1 h
MRT last [8]: 7.18 h
Tmax [8]: 1 h
Tmax (plasma, oral, 45 mg/m2, Cycle 1 Day 15, Cohort A1, 45 mg/m2 per dose, individual patients): 1 h
AUC (plasma, oral, 45 mg/m^2, steady state (cycle 1, day 15), Cohort A1, 45 mg/m^2 QD, (CV), read-out: AUCtau): 2470 ng·h/mL
Cmax (plasma, oral, 45 mg/m^2, steady state (cycle 1, day 15), Cohort A1, 45 mg/m^2 QD, (CV)): 354 ng/mL
Tmax (plasma, oral, 45 mg/m^2, steady state (cycle 1, day 15), Cohort A1, 45 mg/m^2 QD): 1 h
AUC (plasma, oral, 60 mg/m2, Cohort A1, 60 mg/m2 per dose, C1D15, Geometric Mean, N 3, read-out: AUC_TAU): 3930 ng·h/mL
Cmax (plasma, oral, 60 mg/m2, Cohort A1, 60 mg/m2 per dose, C1D15, Geometric Mean, N 3): 492 ng/mL
AUC (plasma, oral, 60 mg/m2, Cohort A1, 60 mg/m2 per dose, C1D15, Median, N 3, read-out: AUC_TAU): 4140 ng·h/mL
Cmax [9]: 558 ng/mL
Tmax [9]: 2 h
AUC (plasma, oral, 60 mg/m2, Cohort A1, 60 mg/m2 per dose, C1D15, individual patient, read-out: AUC_TAU): 4140 ng·h/mL

Source: paper PMC10202811 (Nature Medicine, 2023)
